Results taken from patent publication EP3292132B1, “PI3K INHIBITOR COMPOUNDS TO TREAT CANCER” (FUNDACIÓN MEDINA. Centro de Excelencia en Investigación de …, priority 2015, dated 2016).

How the values were obtained:
mice = settings: mouse, ip, 50 mg/kg
Experimental: In order to evaluate the in vivo toxicity, mice were intraperitoneal injected with MDN-0088 at 50 mg/kg.

MCF-7 cell line = assay: Cell cycle analysis by flow cytometry (propidium iodide DNA staining); assay type: cell-based; settings: for percentage of cells in each cell cycle phase: G0/G1 / percentage of cells in each cell cycle phase: G2/M / percentage of cells in each cell cycle phase: S: 72 hours of incubation
Experimental: For the evaluation of the MDN-0088 activity, the MCF-7 cell line was used. The method used was flow cytometry to determine the effect of MDN-0088 on cell cycle. This method of DNA staining utilizes ethanol to fix the cells and permeabilize the membrane, which allows the dye (Propidium Iodide) to enter the cells.
For this purpose, cells were seeded in 6-well plates at 200,000 cells/well. After 24 hours, cells were serum-deprived for 72 hours. Medium was removed and compounds/standards were added in fresh medium at a different concentration (4µL of compound/2mL fresh medium). DMSO concentration was 0.2% in all wells. After 72 hours of incubation (37 °C, 5% CO2), cells were scrapped and centrifuged (1200rpm for 5 min) and washed twice with PBS. 330 µL of cell suspension was placed in a Facs tube and 660 µL ice cold 100% ethanol was added drop-wise to the tube walls. Tubes were mixed by vortexing slowly during addition of ethanol. They were left at […] overnight.
Tubes were centrifuged (1200 rpm for 5 min) to remove ethanol, 4 mL PBS was added and they were washed at 1200 rpm for 5 min. The supernatant was removed and cells were resuspended in DNA staining solution (500 µL PBS/IP 20µg/mL/Rnase 0.2 mg/ml). Data was acquired on a flow cytometer (Accury, BD).
As shown in Table 3 and Figure 1, an increase in G0/G1 and a decrease both in S and G2/M phase were observed. […]

AKT = assay: Western blot, PI3K/AKT/mTOR pathway inhibition: total AKT; assay type: cell-based; settings: 60 min treatment; signals quantified using β-actine
Source text: (§1) Western blot technique was used, using an Odissey Licor equipment to identify the proteins. Phospho AKT, AKT and Phospho GSK3β antibodies were used as first antibodies and anti-mouse 680nm as second antibody. Then, the signals were quantified using β-actine.

Phospho AKT = assay: Western blot, PI3K/AKT/mTOR pathway inhibition: phospho AKT; assay type: cell-based; settings: 1 hour treatment; signals quantified using β-actine
Source text: as §1

Phospho GSK3β = assay: Western blot, PI3K/AKT/mTOR pathway inhibition: phospho GSK3β; assay type: cell-based; settings: 1 hour treatment; signals quantified using β-actine
Source text: as §1

Compound	weight loss or changes in behavior (mice; in vivo)	in vivo toxicity (mice)	percentage of cells in each cell cycle phase: G0/G1 (MCF-7 cell line; MCF-7, 6.25 µM)	percentage of cells in each cell cycle phase: G2/M (MCF-7 cell line; MCF-7, 6.25 µM)	percentage of cells in each cell cycle phase: S (MCF-7 cell line; MCF-7, 6.25 µM)	percentage of cells in each cell cycle phase: G0/G1 (MCF-7 cell line; MCF-7, 12.5 µM)	percentage of cells in each cell cycle phase: G2/M (MCF-7 cell line; MCF-7, 12.5 µM)	percentage of cells in each cell cycle phase: S (MCF-7 cell line; MCF-7, 12.5 µM)	percentage of cells in each cell cycle phase: G0/G1 (MCF-7 cell line; MCF-7, 25 µM)	percentage of cells in each cell cycle phase: G2/M (MCF-7 cell line; MCF-7, 25 µM)	percentage of cells in each cell cycle phase: S (MCF-7 cell line; MCF-7, 25 µM)	percentage of cells in each cell cycle phase: G0/G1 (MCF-7 cell line; MCF-7, 50 µM)	percentage of cells in each cell cycle phase: G2/M (MCF-7 cell line; MCF-7, 50 µM)	percentage of cells in each cell cycle phase: S (MCF-7 cell line; MCF-7, 50 µM)	effect on cell cycle (MCF-7 cell line; MCF-7, result in words)	AKT total (AKT)	pAKT (Phospho AKT)	phospho-GSK3 β (Phospho GSK3β)
CCCCCCCC(=O)CCCc1oc(=O)ccc1O[C@@H]1O[C@H](CO)[C@@H](O)[C@H](O)[C@H]1O [MDN-0088]	no weight loss or changes in their behavior	absence of toxicity	48.17%	17.71%	6.09%	53.49%	15.76%	5.64%	56.9%	14.38%	3.49%	62.79%	10.99%	2.37%	blocks the cell cycle in G0/G1 phase	0.58	0.027	0.037
O=c1cc(N2CCOCC2)oc2c(-c3ccccc3)cccc12 [LY294002, reference compound]																0.61	0.055	0.042
